Assay [1] concerns the target T1, 5-hydroxytryptamine receptor 2C (Homo sapiens, UniProt P28335).
T1 sequence (P28335 whole entry): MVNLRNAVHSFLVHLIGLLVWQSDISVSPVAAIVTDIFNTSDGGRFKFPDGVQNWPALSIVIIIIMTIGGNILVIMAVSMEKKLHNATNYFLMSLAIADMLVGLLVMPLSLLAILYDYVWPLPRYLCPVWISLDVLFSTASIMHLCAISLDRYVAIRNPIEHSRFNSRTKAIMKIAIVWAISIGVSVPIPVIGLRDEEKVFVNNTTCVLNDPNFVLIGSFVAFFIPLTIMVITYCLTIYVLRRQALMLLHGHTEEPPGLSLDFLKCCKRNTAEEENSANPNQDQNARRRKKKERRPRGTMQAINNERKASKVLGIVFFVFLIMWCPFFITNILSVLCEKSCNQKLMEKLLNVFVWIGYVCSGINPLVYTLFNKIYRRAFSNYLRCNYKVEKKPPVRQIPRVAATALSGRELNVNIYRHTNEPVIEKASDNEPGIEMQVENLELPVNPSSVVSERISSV
As to the kind of experiment: Binding affinity to human 5HT2C receptor.

Assay [2] concerns the target 5-hydroxytryptamine receptor 2A (Homo sapiens, UniProt P28223). As to the kind of experiment: Binding affinity to human 5HT2A receptor.
Assay [3] addresses 5-hydroxytryptamine receptor 2B (Homo sapiens, UniProt P41595). As to the kind of experiment: Binding affinity to human 5HT2B receptor.

Molecules are shown by their SMILES.

One may read the Ki as the equilibrium dissociation constant of an inhibitor or competing ligand from its target.

Sequence of 5-hydroxytryptamine receptor 2B (P41595 whole entry): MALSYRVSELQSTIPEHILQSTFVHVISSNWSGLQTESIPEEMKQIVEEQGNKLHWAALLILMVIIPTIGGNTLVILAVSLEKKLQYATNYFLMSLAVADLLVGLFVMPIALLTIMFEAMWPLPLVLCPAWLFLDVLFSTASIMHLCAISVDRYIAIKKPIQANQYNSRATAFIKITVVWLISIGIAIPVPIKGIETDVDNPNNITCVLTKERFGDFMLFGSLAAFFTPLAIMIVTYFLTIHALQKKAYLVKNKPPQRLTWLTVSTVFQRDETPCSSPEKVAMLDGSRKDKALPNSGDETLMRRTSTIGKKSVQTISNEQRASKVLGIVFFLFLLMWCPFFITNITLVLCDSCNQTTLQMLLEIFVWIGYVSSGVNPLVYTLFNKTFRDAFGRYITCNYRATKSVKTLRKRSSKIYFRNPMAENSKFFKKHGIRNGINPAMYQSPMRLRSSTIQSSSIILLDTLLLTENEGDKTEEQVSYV
Sequence of 5-hydroxytryptamine receptor 2A (P28223 whole entry): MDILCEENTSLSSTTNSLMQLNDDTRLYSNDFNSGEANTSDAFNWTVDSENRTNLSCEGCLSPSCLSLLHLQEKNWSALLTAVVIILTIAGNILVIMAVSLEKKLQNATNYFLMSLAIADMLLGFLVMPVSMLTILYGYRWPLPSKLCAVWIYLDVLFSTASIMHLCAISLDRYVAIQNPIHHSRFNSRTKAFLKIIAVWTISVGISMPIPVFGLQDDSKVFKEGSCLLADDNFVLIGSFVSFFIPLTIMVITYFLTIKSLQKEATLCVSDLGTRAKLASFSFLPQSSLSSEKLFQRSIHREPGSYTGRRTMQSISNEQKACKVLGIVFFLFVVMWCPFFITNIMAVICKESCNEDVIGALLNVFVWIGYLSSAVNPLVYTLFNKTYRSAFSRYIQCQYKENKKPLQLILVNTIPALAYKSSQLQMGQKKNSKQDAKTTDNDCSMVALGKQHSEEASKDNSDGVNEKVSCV

In the case of `COc1ccc(N2CC=C(c3ccc(Cl)c(Cl)c3)C2=O)cc1OCCN1CCOCC1`, the Ki was 6.31 nM in assay [1], 3980 nM in assay [2] and more than 1580 nM in assay [3].

For `O=C1C(c2ccc(Cl)c(Cl)c2)=CCN1c1ccc(Cl)c(OCCN2CCCCC2)c1`, the Ki in assay [1] is 63.1 nM; in assay [2], more than 1260 nM; in assay [3] it was more than 1580 nM.

Take `COc1ccc(N2CC=C(c3ccc(OC)c(OCCN4CCCCC4)c3)C2=O)cc1F`: the inhibition constant Ki is 6.31 nM in assay [1], more than 3160 nM in assay [2] and more than 1580 nM in assay [3].

As to `O=C1C(c2ccc(Cl)c(Cl)c2)=CCN1c1ccc(OC(F)(F)F)c(OCCN2CCCCC2)c1`, the Ki is more than 1260 nM in assay [1], more than 10000 nM in assay [2] and more than 3160 nM in assay [3].

With `COc1ccc(N2CC=C(c3cccc(F)c3)C2=O)cc1OCCN1CCCCC1`, the inhibitory constant (Ki) in assay [1] is 0.794 nM; in assay [2], 631 nM; in assay [3] it was 501 nM.

As to `O=C1C(c2ccc(Cl)c(Cl)c2)CCN1c1ccc(Cl)c(OCCN2CCCCC2)c1` (configuration not stated), the results for the inhibitory constant (Ki) in assay [1], in assay [2] and in assay [3] were 100 nM, more than 1000 nM and more than 1580 nM, respectively.

In the case of `COc1ccc(N2CCC(c3cccc(Cl)c3)C2=O)cc1OCCN1CCCCC1` (configuration not stated), the Ki in assay [1] is 25.1 nM; in assay [2], more than 1000 nM; in assay [3] it was more than 1000 nM.

With `CC(=O)Nc1ccc(N2CCC(c3ccc(Cl)c(Cl)c3)C2=O)cc1OCCN1CCCCC1` (configuration not stated), the Ki in assay [1] was 316 nM; in assay [2] it was more than 3160 nM; in assay [3] it was more than 1580 nM.

Consider `COc1ccc(C2=C(C)CN(c3ccc(Cl)cc3)C2=O)cc1OCCN1CCCCC1`, for which the results for the inhibition constant Ki in assay [1], in assay [2] and in assay [3] were 200 nM, 398 nM and 501 nM, respectively.

As for `COc1ccc(N2CC=C(c3cccc(C(F)(F)F)c3)C2=O)cc1OCCN1CCCCC1`, the Ki in assay [1] was 5.01 nM; in assay [2], 794 nM; in assay [3], more than 794 nM.

As for `COc1ccc(N2CC=C(c3ccc(OC)c(OCCN4CCCCC4)c3)C2=O)cc1`, the Ki in assay [1] is 10 nM; in assay [2], more than 5010 nM; in assay [3], more than 2000 nM.

As to `COc1ccc(N2CCC(c3ccc(OC)c(OCCN4CCCCC4)c3)C2=O)cc1Cl` (configuration not stated), the inhibitory constant (Ki) was 20 nM in assay [1], more than 2000 nM in assay [2] and 1580 nM in assay [3].

As to `COc1ccc(C2=CCN(c3ccc(Cl)c(Cl)c3)C2=O)cc1OCCN1CCCCC1`, the values for the inhibition constant Ki in assay [1], in assay [2] and in assay [3] were 5.01 nM, 1260 nM and 126 nM, respectively.

Take `COc1ccc(N2CCC(c3ccc(OC)c(OCCN4CCCCC4)c3)C2=O)cc1` (configuration not stated): the Ki in assay [1] is 100 nM; in assay [2] it was more than 10000 nM; in assay [3] it was more than 10000 nM.

For the molecule `COc1ccc(N2CCC(c3ccc(OC)c(OCCN4CCCCC4)c3)C2=O)cc1F` (configuration not stated), the values for the Ki in assay [1], in assay [2] and in assay [3] were 15.8 nM, more than 1000 nM and more than 1580 nM, respectively.

Regarding `COc1ccc(N2CC=C(c3ccc(Cl)c(Cl)c3)C2=O)cc1OCCN1CCCC1`, the figures for the Ki in assay [1], in assay [2] and in assay [3] were 3.98 nM, 631 nM and more than 1580 nM, respectively.

On to `O=C1C(c2ccc(Cl)c(Cl)c2)CCN1c1ccc(OC(F)(F)F)c(OCCN2CCCCC2)c1` (configuration not stated), for which the Ki in assay [1] was 794 nM; in assay [2], 3160 nM; in assay [3], 1580 nM.

`COc1ccc(N2CCC(c3ccc(Cl)c(Cl)c3)C2=O)cc1OCCN1CCCCC1` (configuration not stated): the Ki in assay [1] is 12.6 nM; in assay [2], 501 nM; in assay [3], 1580 nM.

As to `COc1ccc(N2CC=C(c3ccc(Cl)cc3)C2=O)cc1OCCN1CCC(C)CC1`, the Ki is 6.31 nM in assay [1], 631 nM in assay [2] and more than 1580 nM in assay [3].

For the molecule `COc1ccc(N2CC=C(c3ccc(F)cc3)C2=O)cc1OCCN1CCCCC1`, the inhibition constant (Ki) is 6.31 nM in assay [1], 398 nM in assay [2] and 1000 nM in assay [3].

Turning to `COc1ccc(C2(C)CCN(c3ccc(Cl)c(Cl)c3)C2=O)cc1OCCN1CCCCC1` (configuration not stated), the inhibition constant (Ki) was 10 nM in assay [1] and 501 nM in assay [2]. In assay [3], this molecule gave a Log Ki of more than -6.3.

Turning to `COc1ccc(N2CC=C(c3ccc(C)cc3)C2=O)cc1OCCN1CCC(C)CC1`, the inhibition constant (Ki) in assay [1] was 1.58 nM; in assay [2], 631 nM; in assay [3] it was 1580 nM.

As for `COc1ccc(C2CCN(c3ccc(Cl)c(Cl)c3)C2=O)cc1OCCN1CCCCC1` (configuration not stated), the figures for the Ki in assay [1], in assay [2] and in assay [3] were 10 nM, 794 nM and 398 nM, respectively.

Regarding `COc1ccc(N2CCC(c3ccc(Cl)c(Cl)c3)C2=O)cc1OCCN1CCC(C)CC1` (configuration not stated), the values for the inhibitory constant (Ki) in assay [1], in assay [2] and in assay [3] were 12.6 nM, 398 nM and 2000 nM, respectively.

Take `COc1ccc(N2CC=C(c3ccc(F)cc3)C2=O)cc1OCCN1CCC(C)CC1`: the figures for the Ki in assay [1], in assay [2] and in assay [3] were 3.16 nM, 251 nM and 1260 nM, respectively.

For the molecule `Cc1ccc(N2CCC(c3ccc(Cl)c(Cl)c3)C2=O)cc1OCCN1CCCCC1` (configuration not stated), the Ki in assay [1] is 398 nM; in assay [2] it was more than 1580 nM; in assay [3], more than 1580 nM.

As for `COc1ccc(N2CCC(c3ccc(Cl)c(Cl)c3)C2=O)cc1OCCN1CCC(C(C)C)CC1` (configuration not stated), the results for the inhibition constant Ki in assay [1], in assay [2] and in assay [3] were 25.1 nM, 398 nM and more than 1000 nM, respectively.

As to `COc1ccc(N2CC=C(c3ccc(Br)cc3)C2=O)cc1OCCN1CCC(C)CC1`, the Ki in assay [1] is 3.98 nM; in assay [2], 398 nM. This molecule also registered a Log Ki in assay [3] of more than -6.2.

On to `COc1ccc(N2CC=C(c3cccc(Cl)c3)C2=O)cc1OCCN1CCC(C)CC1`, for which the results for the inhibition constant (Ki) in assay [1], in assay [2] and in assay [3] were 5.01 nM, 794 nM and 501 nM, respectively.

Consider `COc1ccc(N2CCC(c3cccc(F)c3)C2=O)cc1OCCN1CCCCC1` (configuration not stated), for which the Ki was 100 nM in assay [1], more than 7940 nM in assay [2] and more than 1580 nM in assay [3].

For `COc1ccc(N2CCC(c3ccc(Cl)c(Cl)c3)C2=O)cc1OCCN1CCC(C)(C)CC1` (configuration not stated), the Ki in assay [1] is 12.6 nM; in assay [2], 398 nM; in assay [3], more than 1000 nM.

Turning to `COc1ccc(N2CC=C(c3ccc(Br)cc3)C2=O)cc1OCCN1CCCCC1`, the Ki in assay [1] was 1.26 nM; in assay [2], 158 nM; in assay [3], 200 nM.

For `COc1ccc(N2CCC(c3ccc(F)cc3)C2=O)cc1OCCN1CCCCC1` (configuration not stated), the figures for the inhibition constant (Ki) in assay [1], in assay [2] and in assay [3] were 100 nM, more than 2510 nM and more than 5010 nM, respectively.

With `O=C1C(c2ccc(Cl)c(Cl)c2)=CCN1c1ccc(N2CCCC2)c(OCCN2CCCCC2)c1`, the results for the Ki in assay [1], in assay [2] and in assay [3] were 200 nM, more than 1260 nM and more than 10000 nM, respectively.

For `COc1ccc(N2CC=C(c3ccc(C)cc3)C2=O)cc1OCCN1CCCCC1`, the inhibition constant Ki is 0.316 nM in assay [1], more than 1000 nM in assay [2] and more than 1000 nM in assay [3].

`COc1ccc(N2CC=C(c3ccc(C(F)(F)F)cc3)C2=O)cc1OCCN1CCC(C)CC1`: the values for the Ki in assay [1], in assay [2] and in assay [3] were 12.6 nM, 1580 nM and more than 10000 nM, respectively.

In the case of `CC(=O)Nc1ccc(N2CC=C(c3ccc(Cl)c(Cl)c3)C2=O)cc1OCCN1CCCCC1`, the Ki in assay [1] was 50.1 nM; in assay [2] it was more than 1580 nM; in assay [3], more than 1580 nM.

For `COc1ccc(N2CC=C(c3cccc(Cl)c3)C2=O)cc1OCCN1CCCCC1`, the Ki is 2.51 nM in assay [1], 631 nM in assay [2] and 631 nM in assay [3].

For `COc1ccc(N2CC=C(c3ccc(Cl)c(Cl)c3)C2=O)cc1OCCN1CCC(F)(F)CC1`, the Ki is 7.94 nM in assay [1], more than 5010 nM in assay [2] and more than 5010 nM in assay [3].

For `COc1ccc(N2CC=C(c3ccc(Cl)c(Cl)c3)C2=O)cc1OCCN1CCC(C)(C)CC1`, the Ki was 3.98 nM in assay [1], more than 6310 nM in assay [2] and 316 nM in assay [3].

On to `COc1ccc(N2CC=C(c3ccc(Cl)c(Cl)c3)C2=O)cc1OCCN1CCC(C(C)C)CC1`, for which the Ki was 12.6 nM in assay [1], more than 794 nM in assay [2] and more than 1000 nM in assay [3].

Turning to `COc1ccc(C2CCN(c3cccc(F)c3)C2=O)cc1OCCN1CCCCC1` (configuration not stated), the Ki was 20 nM in assay [1], more than 1260 nM in assay [2] and more than 794 nM in assay [3].

`COc1ccc(N2CC=C(c3ccc(C(F)(F)F)cc3)C2=O)cc1OCCN1CCCCC1`: the inhibitory constant (Ki) in assay [1] was 12.6 nM; in assay [2], more than 1260 nM; in assay [3] it was more than 1000 nM.

As for `COc1ccc(N2CC=C(c3ccc(Cl)cc3)C2=O)cc1OCCN1CCCCC1`, the Ki in assay [1] was 7.94 nM; in assay [2], 1000 nM; in assay [3], more than 1580 nM.

Regarding `Cc1ccc(N2CC=C(c3ccc(Cl)c(Cl)c3)C2=O)cc1OCCN1CCCCC1`, the Ki in assay [1] is 126 nM; in assay [2], more than 1260 nM; in assay [3], more than 2000 nM.

For `COc1ccc(C2=CCN(c3cccc(F)c3)C2=O)cc1OCCN1CCCCC1`, the Ki in assay [1] is 6.31 nM; in assay [2] it was 1000 nM; in assay [3], 501 nM.

`COc1ccc(N2CC=C(c3ccc(Cl)c(F)c3)C2=O)cc1OCCN1CCC(C)CC1`: the Ki is 7.94 nM in assay [1], more than 1260 nM in assay [2] and more than 2000 nM in assay [3].

With `COc1ccc(C2=C(C)CN(c3ccc(Cl)c(Cl)c3)C2=O)cc1OCCN1CCCCC1`, the Ki in assay [1] was 126 nM; in assay [2], 501 nM; in assay [3] it was 200 nM.

On to `COc1ccc(N2CC=C(c3ccc(OC)c(OCCN4CCCCC4)c3)C2=O)cc1Cl`, for which the Ki in assay [1] is 5.01 nM; in assay [2], more than 6310 nM. The Log Ki in assay [3] is more than -6.4.

For the origin of these results see ChEMBL document CHEMBL1146011, “Diaryl substituted pyrrolidinones and pyrrolones as 5-HT2C inhibitors: synthesis and biological evaluation” (Bioorg Med Chem Lett, 2006).
